Source: publication PMC9241057, “Ru(II)arene(N^N bpy/phen)-based RAPTA complexes for in vitro anti-tumour activity in human glioblastoma cancer cell lines and in vivo toxicity studies in a zebrafish model” (RSC Advances, 2022)

Assays:
[1] = Solubility; conditions: DMSO-10% DMEM medium (1:99 v/v, comparable to cell media)
[2] = n-Octanol/water partition coefficient, shake-flask method
Procedure: n-Octanol–water partition coefficient (log P o/w)8
Using the previously reported shake flask approach, the log Po/w of the RAPTA complexes
followed the previously described procedure. An orbital shaker was used to shake a known
amount of each complexes in water (pre-saturated with n-octanol). The solution was
centrifuged at 3000 rpm for 10 minutes to allow phase separation. Different ratios (0.5:1, 1:1,
and 2:1) of saturated solutions were shaken for 20 minutes on an orbital shaker with pre-
saturated n-octanol to get the partition coefficient. The absorbance of aliquots of the aqueous
and octanol layers were measured with a UV-Vis spectrophotometer after adequate dilution.
The concentrations of the complexes in each layer were estimated using the corresponding
molar extinction coefficients, and the partition coefficient (log Po/w) values were computed

[3] = tested on: T98G cells; assay: Neurosphere assay; type: cell-based, human; conditions: T98G, 20, 80 and 160 μM
Procedure: The neurosphere assay is one of the best methods for analysing the stem cell capacity of isolated brain cells.[23] The stem cell media was used to grow T98G cells through single-cell division within 3 days and subsequently the development of small-diameter “neurosphere-like” tumour spheres within 7 days. After 12–14 days of culture, a phase-contrast microscope was used to take the image of the tumour spheres. To promote differentiation, DMEM (containing 10% FBS) medium was added to the tumour spheres.
Fig. 5 Neurosphere assay using different concentrations: (b) 20 μM, (c) 80 μM and (d) 160 μM of complex 4c against the T98G cell line; (a) pre-treatment (concentration of 4c = 0 μM).
Serum-free DMEM/F-12 (1 : 1), B27 (1 : 50), EGF (20 μg L^−1), bFGF (20 μg L^−1), antibiotic (Gibco) were added to stem cell media. The cells were grown in a tissue culture incubator with 5% CO2 at […]. Serum-free media were changed twice a week.

[4] = tested on: zebrafish embryos; conditions: embryos exposed for 5 h to 100 μM
Procedure: Zebrafish were purchased from Zebrafish CRO, Pentagrit Discovery, Chennai 600100. All the procedures were conducted with reference to the guidelines of OECD 203 (OECD 203, 1992).[29] The local wild-type zebrafish strain weighing approximately 500–600 mg (2–3 months old) were maintained under standard laboratory conditions at 28 °C under a 14 : 10 h light/dark cycle with the conductivity of the water being 350 μS, maintained at pH 7.2–7.4. All the animal experiments including surgical procedures were conducted according to the procedures of the Committee for the Purpose of Control and Supervision of Experiments on Animals (CPCSEA), Govt. of India, as instructed by Institutional Animal ethical guidelines (VIT/IAEC/2019/16/Aug10/15), VIT University.[29] All animal procedures were performed in accordance with the Guidelines for Care and Use of Laboratory Animals of “VIT” University and approved by the Animal Ethics Committee of “VIT”.
Freshly laid eggs [<1 h post-fertilisation (hpf)] were transferred to 50 ml crystallising dishes filled with the respective test solutions. After the successful control of fertilisation, the eggs were separately transferred to 24-well plates with 2 ml of test solution per well. […] The embryos were analysed under an Olympus CKX41 inverted microscope (Olympus, Hamburg, Germany).

[5] = tested on: zebrafish; assay: In vivo biodistribution study in zebrafish; conditions: 25 μg g^−1, 15 minutes
Procedure: Biodistribution and sequestration studies of complex 4c were conducted via the caudal vein injection into the zebrafish. After 15 minutes (25 μg g^−1) of exposure, the fish were sacrificed and different organs (brain, heart, kidney, intestine, notochord and digestive system) were dissected and the biodistribution of this complex into these organs was measured by fluorescence microscopy. A comparative study was performed with complex 4c and Evans blue dye and was analyzed by the confocal imaging of the tissue sections. From this experiment, it was observed that the sensitivity of zebrafish towards 4c was sequestered in the brain, heart, kidney, intestine, notochord and digestive system. […] Furthermore, this fluorescence-based interaction could provide us with an idea of the uptake mechanism via crossing the blood–brain barrier.
Zebrafish were anesthetized with 2-phenoxyethanol and injected with complex 4cvia […]. After injection at different times, the fish were sacrificed and the organs were collected and fixed with 4% paraformaldehyde and 4% glutaraldehyde, followed by dehydration with the gradient increase of ethanol (75%, 95%, 100%) for 20 min each, further with xylene for 1 h and then fixed in Paraplast. […] Sequestration of complex 4c in different organs was investigated by confocal fluorescence microscopy using a CLSM (Zeiss LSM 710) microscope. […]

[6] = tested on: EtBr-bound DNA (Ct-DNA); assay: EtBr displacement assay (fluorescence); type: binding, calf; conditions: for Ksv, Stern-Volmer quenching constant: EtBr-bound DNA; for Kapp, apparent DNA binding constant: competitive displacement of EtBr
Procedure: Ethidium bromide displacement assay […]
bromide (EtBr) displacement experiment was used.3 Using ethidium bromide (EtBr) as a spectral probe in 5 mM Tris-HCl buffer, the apparent binding constant (K app) of the RAPTA complex 4c to Ct-DNA was determined at pH = 7.4. Because the fluorescence of EtBr was quenched by the solvent molecules, it was unable to show any fluorescence in its free state.
However, in the presence of Ct-DNA, its fluorescence intensity began to increase, indicating that EtBr binds to DNA […] in an intercalative manner. With increasing concentrations of […]
complexes displaced EtBr from CT-DNA grooves and were linked to the DNA base pairs itself. The values of the apparent binding constant (K app) were obtained by using the equation […]
Kapp × [Complex]50 = kEtBr × [EtBr]⋯⋯⋯(iii)
Where KEtBr is the EtBr binding constant (K EtBr = 1.0 x 107 M-1), and [EtBr] = 8 x 10^-6 M.
Stern-Volmer equation was followed for quantitative determination of the Stern-Volmer quenching constant (K SV).4 Origin (8.5) software was used to plot the fluorescence data to obtain linear plot of I0/I vs. [complex]. The value of KSV was calculated from the following […]
Where I0 = fluorescence intensity in absence of complex and I = fluorescence intensities in presence of complex of concentration [Q]. […]

[7] = tested on: U87MG cells; assay: Cell cycle analysis by flow cytometry; type: cell-based, human; conditions: 0.93 μM
Procedure: As per the results of the MTT assay, there was an inhibition of cell proliferation that was further validated by determining the cellular damage, DNA damage and oxidative stress. Therefore, we went forward to investigate the DNA content by flow cytometry. […] We also observed a low S phase and M phase after the complex treatment (Fig. 4).
Fig. 4 Cell cycle analysis with the control U87MG cells (above) and the treatment of 0.93 μM 4d (below). TEXT PRINTED IN THE PICTURE: 4d: G0-G1(70.49%); S(21.32%); M(2.49%); Sub G1(3.48%) DOUBTS OF THE COPYIST ABOUT THIS PICTURE: 4d, G0-G1: 70.49% - blurred print, 9 could be 8 / 4d, S: 21.32% - blurred print, 3 could be 8 / 4d, M: 2.49% - blurred print, 9 could be 8 / 4d, Sub G1: 3.48% - blurred print, 3 and 8 not certain (3.46 or 3.48) / The Control plots (untreated cells, not a substance) print P2(43.61%), P3(29.04%), P4(24.36%), Sub G1(6.24%); these are left out of the lines, and their digits are blurred too

Row | Compound | solubility [1] [mM] | log P (partition coefficient in n-octanol/water) [2] | effect on neurospheres [3] | morbidity or mortality of embryos [4] | accumulation in the brain [5] | sequestration in digestive system, kidney and notochord [5] | Ksv, Stern-Volmer quenching constant [6] [M⁻¹] | Ksv, Stern-Volmer quenching constant ([6]; Table S2) [M⁻¹] | Kapp, apparent DNA binding constant [6] [M⁻¹] | Kapp, apparent DNA binding constant ([6]; Table S2) [M⁻¹] | G0/G1 phase [7] [%]
1 | C1N2CN3CN1CP(C2)C3.Cc1ccc(C(C)C)cc1.Cc1ccnc2c1ccc1c(C)ccnc12.F[P-](F)(F)(F)(F)F.F[P-](F)(F)(F)(F)F.[Ru+2] [4c, [(η^6-p-Cymene)Ru^II(κ^2-N,N-4,7dimethylphenanthroline)(PTA)]·2PF6] | 18 | 0.30±0.04 | Complete developmental neurotoxicity | No significant morbidity or mortality | accumulation was significant | maximum sequestration | 180 | 180 | 1.38e+06 | 1.38e+06 | –
2 | C1N2CN3CN1CP(C2)C3.Cc1ccc(C(C)C)cc1.F[P-](F)(F)(F)(F)F.F[P-](F)(F)(F)(F)F.[Ru+2].c1ccc(-c2ccnc3c2ccc2c(-c4ccccc4)ccnc23)cc1 [4d, [(η^6-p-Cymene)Ru^II(κ^2-N,N-4,7diphenylphenanthroline)(PTA)]·2PF6] | – | – | – | – | – | – | – | – | – | – | ~70.49
